{"source": "ChEMBL document CHEMBL4706768", "about": "“Discovery of Potent, Selective Triazolothiadiazole-Containing c-Met Inhibitors” (ACS Med Chem Lett, 2021)", "key": {"[1]": {"molecular_target": "T1, Hepatocyte growth factor receptor (Homo sapiens, UniProt P08581)", "T1 sequence (P08581 whole entry)": "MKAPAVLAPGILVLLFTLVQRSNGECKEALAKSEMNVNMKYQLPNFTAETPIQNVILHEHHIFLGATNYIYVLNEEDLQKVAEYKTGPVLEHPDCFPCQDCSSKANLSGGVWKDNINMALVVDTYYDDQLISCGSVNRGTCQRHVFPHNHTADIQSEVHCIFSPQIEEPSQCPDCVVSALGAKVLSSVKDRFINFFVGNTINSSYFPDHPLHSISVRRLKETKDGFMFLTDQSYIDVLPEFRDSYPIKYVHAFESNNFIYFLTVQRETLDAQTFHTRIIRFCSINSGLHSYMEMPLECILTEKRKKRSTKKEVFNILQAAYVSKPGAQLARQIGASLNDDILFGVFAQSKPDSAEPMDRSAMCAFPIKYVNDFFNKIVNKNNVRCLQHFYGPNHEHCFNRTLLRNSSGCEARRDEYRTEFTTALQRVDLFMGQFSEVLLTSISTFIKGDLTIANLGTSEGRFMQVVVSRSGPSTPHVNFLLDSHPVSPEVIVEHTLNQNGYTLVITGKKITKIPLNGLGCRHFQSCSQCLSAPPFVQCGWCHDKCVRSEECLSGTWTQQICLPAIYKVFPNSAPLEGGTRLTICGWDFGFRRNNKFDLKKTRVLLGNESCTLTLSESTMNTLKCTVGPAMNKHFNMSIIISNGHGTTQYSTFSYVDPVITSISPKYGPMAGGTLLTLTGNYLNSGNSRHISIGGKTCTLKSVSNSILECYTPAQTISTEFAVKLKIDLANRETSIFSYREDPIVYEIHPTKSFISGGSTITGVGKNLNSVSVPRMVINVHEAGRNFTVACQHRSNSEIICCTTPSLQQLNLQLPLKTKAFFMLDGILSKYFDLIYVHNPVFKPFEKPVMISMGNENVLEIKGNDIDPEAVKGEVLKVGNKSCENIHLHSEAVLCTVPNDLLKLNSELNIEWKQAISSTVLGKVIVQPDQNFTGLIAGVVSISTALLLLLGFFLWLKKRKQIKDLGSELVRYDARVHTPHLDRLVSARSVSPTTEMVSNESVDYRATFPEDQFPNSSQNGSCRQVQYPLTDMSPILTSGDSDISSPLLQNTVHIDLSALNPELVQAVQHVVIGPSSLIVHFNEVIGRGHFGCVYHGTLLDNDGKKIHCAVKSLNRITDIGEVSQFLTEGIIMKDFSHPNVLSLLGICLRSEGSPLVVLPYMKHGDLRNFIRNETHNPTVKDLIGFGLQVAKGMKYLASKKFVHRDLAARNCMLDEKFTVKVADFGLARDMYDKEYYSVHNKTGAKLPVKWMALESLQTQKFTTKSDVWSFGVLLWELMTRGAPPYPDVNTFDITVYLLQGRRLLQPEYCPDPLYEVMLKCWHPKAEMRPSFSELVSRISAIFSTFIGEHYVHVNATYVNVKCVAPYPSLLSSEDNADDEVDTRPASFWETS", "assay": "Inhibition of c-Met (unknown origin) using poly Glu-Tyr as substrate preincubated for 10 mins followed by ATP addition by phosphoenolpyruvate/pyruvate kinase/lactate dehydrogenase coupled radiometric assay"}, "[2]": {"molecular_target": "T1, Hepatocyte growth factor receptor", "assay": "Inhibition of c-MET in human SNU-5 cells measured after 6 hrs by steady-glo luciferase reporter gene assay", "format": "cell-based"}, "[3]": {"molecular_target": "Receptor-type tyrosine-protein kinase FLT3 (Homo sapiens, UniProt P36888)", "assay": "Inhibition of FLT3 (unknown origin)"}, "[4]": {"molecular_target": "Tyrosine-protein kinase JAK2 (Homo sapiens, UniProt O60674)", "assay": "Inhibition of JAK2 (unknown origin)"}, "[5]": {"molecular_target": "Vascular endothelial growth factor receptor 2 (Homo sapiens, UniProt P35968)", "assay": "Inhibition of KDR (unknown origin)"}, "[6]": {"molecular_target": "Proto-oncogene tyrosine-protein kinase Src (Homo sapiens, UniProt P12931)", "assay": "Inhibition of SRC (unknown origin)"}, "[7]": {"molecular_target": "Tyrosine-protein kinase receptor TYRO3 (Homo sapiens, UniProt Q06418)", "assay": "Inhibition of SKY (unknown origin)"}, "[8]": {"assay": "Inhibition of PI3K (unknown origin)", "parameters": "species or system Homo sapiens"}, "[9]": {"molecular_target": "Mitogen-activated protein kinase kinase kinase 5 (Homo sapiens) (UniProt Q99683)", "sequence (Q99683 whole entry, the tested form may be a part)": "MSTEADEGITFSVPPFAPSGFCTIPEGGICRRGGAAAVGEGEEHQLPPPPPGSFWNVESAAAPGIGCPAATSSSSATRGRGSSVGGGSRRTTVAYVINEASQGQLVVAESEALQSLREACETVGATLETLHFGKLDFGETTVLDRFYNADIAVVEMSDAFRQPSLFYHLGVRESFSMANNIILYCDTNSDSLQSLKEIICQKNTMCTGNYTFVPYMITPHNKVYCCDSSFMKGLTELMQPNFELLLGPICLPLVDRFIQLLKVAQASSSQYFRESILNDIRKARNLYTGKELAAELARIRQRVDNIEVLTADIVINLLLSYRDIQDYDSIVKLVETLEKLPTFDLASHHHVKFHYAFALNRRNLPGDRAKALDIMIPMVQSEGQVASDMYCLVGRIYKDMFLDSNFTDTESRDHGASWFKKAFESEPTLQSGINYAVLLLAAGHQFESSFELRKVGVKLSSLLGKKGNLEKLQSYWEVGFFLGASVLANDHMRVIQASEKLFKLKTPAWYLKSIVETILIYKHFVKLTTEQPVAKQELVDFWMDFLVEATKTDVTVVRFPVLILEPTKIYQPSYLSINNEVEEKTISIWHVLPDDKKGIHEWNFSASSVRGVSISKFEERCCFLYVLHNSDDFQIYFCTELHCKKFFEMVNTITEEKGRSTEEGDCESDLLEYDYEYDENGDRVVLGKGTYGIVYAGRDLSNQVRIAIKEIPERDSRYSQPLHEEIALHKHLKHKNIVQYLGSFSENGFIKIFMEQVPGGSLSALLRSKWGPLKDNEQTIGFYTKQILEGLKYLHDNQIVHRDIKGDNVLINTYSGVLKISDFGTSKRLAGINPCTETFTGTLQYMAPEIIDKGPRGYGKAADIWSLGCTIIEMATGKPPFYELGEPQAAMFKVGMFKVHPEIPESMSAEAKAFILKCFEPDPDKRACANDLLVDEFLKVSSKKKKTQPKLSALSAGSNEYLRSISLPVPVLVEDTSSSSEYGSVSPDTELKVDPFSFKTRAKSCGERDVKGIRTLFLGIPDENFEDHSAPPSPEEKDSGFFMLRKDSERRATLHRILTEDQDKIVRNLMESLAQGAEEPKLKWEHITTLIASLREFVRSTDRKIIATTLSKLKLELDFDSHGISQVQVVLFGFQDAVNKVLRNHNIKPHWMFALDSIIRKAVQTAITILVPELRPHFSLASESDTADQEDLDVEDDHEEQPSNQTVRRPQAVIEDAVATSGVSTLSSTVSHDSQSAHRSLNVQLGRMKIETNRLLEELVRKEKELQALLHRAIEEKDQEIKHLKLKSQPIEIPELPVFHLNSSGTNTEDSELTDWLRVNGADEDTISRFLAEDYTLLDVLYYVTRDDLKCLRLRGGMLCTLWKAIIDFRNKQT", "assay": "Inhibition of recombinant N-terminal GST-tagged/C-terminal His6-tagged human ASK1 (649 to 946 residues) expressed in Escherichia coli at 2 uM using MBP as substrate relative to control"}, "[10]": {"molecular_target": "Tyrosine-protein kinase Blk (Homo sapiens) (UniProt P51451)", "assay": "Inhibition of recombinant N-terminal His6-tagged human full-length BLK expressed in Sf21 insect cells at 2 uM using Poly (Glu4-Tyr) (4:1) as substrate relative to control"}, "[11]": {"molecular_target": "Tyrosine-protein kinase BTK (Homo sapiens) (UniProt Q06187)", "assay": "Inhibition of recombinant N-terminal His6-tagged human full-length BTK expressed in Sf21 insect cells at 2 uM using Src peptide as substrate relative to control"}, "Homo sapiens": {"species_on_record": "Homo sapiens", "assay": "Inhibition of CK1 (unknown origin) at 2 uM relative to control"}, "[12]": {"molecular_target": "Calcium/calmodulin-dependent protein kinase type II subunit beta (Homo sapiens) (UniProt Q13554)", "assay": "Inhibition of recombinant human N-terminal His6-tagged CAMK2beta (1 to 315 residues) expressed in baculovirus infected Sf21 insect cells at 2 uM using ZIPtide as substrate relative to control"}, "[13]": {"molecular_target": "Epidermal growth factor receptor (Homo sapiens) (UniProt P00533)", "assay": "Inhibition of recombinant human N-terminal GST-tagged EGFR (696 to end residues) expressed in baculovirus infected Sf21 insect cells at 2 uM using angiotensin II peptide as substrate relative to control"}, "[14]": {"molecular_target": "Insulin-like growth factor 1 receptor (Homo sapiens) (UniProt P08069)", "sequence (P08069 31-736 limits assumed)": "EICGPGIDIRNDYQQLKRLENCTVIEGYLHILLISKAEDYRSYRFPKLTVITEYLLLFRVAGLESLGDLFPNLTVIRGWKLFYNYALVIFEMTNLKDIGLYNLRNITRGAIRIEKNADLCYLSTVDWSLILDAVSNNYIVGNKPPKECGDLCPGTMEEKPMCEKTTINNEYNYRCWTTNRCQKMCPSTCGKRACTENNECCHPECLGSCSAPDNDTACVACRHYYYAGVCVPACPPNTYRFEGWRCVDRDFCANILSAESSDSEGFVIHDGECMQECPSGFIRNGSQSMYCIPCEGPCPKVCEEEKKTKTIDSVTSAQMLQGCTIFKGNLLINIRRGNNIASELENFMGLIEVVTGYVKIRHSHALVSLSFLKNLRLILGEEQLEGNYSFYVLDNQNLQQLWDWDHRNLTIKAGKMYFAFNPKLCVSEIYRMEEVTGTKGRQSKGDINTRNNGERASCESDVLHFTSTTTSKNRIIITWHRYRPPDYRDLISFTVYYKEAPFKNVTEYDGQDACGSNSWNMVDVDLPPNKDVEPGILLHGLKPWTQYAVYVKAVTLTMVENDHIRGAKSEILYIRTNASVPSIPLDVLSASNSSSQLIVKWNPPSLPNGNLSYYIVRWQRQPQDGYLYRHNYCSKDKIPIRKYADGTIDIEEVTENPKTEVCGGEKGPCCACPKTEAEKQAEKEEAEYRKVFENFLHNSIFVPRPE", "sequence (P08069 741-1367 limits assumed)": "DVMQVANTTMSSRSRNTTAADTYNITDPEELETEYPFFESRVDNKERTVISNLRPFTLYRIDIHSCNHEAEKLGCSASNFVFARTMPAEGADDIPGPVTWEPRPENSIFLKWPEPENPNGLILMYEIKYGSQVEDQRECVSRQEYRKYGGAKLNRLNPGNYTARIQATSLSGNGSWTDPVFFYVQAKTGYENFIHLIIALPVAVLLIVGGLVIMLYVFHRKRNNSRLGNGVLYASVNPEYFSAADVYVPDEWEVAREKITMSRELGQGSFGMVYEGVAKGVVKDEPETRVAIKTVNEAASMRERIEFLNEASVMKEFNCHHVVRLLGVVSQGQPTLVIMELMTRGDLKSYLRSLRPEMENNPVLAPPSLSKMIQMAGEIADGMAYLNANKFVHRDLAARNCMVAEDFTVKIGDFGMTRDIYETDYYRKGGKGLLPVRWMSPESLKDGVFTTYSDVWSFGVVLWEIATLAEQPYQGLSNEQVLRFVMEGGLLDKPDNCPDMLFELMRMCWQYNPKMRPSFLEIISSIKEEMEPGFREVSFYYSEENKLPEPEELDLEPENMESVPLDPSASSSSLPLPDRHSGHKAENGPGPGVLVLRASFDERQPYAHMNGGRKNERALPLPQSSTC", "assay": "Inhibition of recombinant human N-terminal His6-tagged IGF1R (959 to end residues) expressed in baculovirus infected Sf21 insect cells at 2 uM relative to control"}, "[15]": {"molecular_target": "Insulin receptor-related protein (Homo sapiens) (UniProt P14616)", "assay": "Inhibition of recombinant human N-terminal His6-tagged IRR (944 to 1266 residues) expressed in baculovirus infected Sf21 insect cells at 2 uM using MBP (13-104) as substrate relative to control"}, "[16]": {"molecular_target": "Mitogen-activated protein kinase 8 (Homo sapiens) (UniProt P45983)", "assay": "Inhibition of recombinant human full-length N-terminal His-tagged JNK1alpha1 ([…]) expressed in Sf21 insect cells at 2 uM using ATF2 (19 to 96 residues) as substrate relative to control"}, "[17]": {"molecular_target": "Serine/threonine-protein kinase mTOR (Homo sapiens) (UniProt P42345)", "assay": "Inhibition of recombinant human N-terminal FLAG-tagged mTOR (1362 to end residues) at 2 uM relative to control"}, "[18]": {"molecular_target": "Tyrosine-protein kinase Lyn (Homo sapiens) (UniProt P07948)", "sequence (P07948 2-512 limits assumed)": "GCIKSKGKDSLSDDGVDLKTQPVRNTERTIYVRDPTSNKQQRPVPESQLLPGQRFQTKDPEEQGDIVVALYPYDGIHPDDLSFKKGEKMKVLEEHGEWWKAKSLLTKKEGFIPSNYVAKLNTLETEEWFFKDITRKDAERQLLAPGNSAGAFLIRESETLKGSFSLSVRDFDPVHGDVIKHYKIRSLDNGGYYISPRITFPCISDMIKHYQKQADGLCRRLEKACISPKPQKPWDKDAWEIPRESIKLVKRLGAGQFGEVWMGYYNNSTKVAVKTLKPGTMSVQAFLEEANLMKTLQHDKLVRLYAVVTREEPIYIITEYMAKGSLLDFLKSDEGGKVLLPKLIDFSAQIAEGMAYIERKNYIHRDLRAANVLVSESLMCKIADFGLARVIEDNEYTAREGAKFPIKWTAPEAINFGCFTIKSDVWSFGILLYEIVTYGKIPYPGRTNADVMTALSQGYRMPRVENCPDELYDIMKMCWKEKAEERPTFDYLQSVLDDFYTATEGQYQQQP", "assay": "Inhibition of recombinant human N-terminal His6-tagged full-length LYN expressed in Sf21 insect cells at 2 uM using Poly (Glu4-Tyr) (4:1) as substrate relative to control"}, "[19]": {"molecular_target": "Dual specificity mitogen-activated protein kinase kinase 7 (Homo sapiens) (UniProt O14733)", "sequence (O14733 whole entry)": "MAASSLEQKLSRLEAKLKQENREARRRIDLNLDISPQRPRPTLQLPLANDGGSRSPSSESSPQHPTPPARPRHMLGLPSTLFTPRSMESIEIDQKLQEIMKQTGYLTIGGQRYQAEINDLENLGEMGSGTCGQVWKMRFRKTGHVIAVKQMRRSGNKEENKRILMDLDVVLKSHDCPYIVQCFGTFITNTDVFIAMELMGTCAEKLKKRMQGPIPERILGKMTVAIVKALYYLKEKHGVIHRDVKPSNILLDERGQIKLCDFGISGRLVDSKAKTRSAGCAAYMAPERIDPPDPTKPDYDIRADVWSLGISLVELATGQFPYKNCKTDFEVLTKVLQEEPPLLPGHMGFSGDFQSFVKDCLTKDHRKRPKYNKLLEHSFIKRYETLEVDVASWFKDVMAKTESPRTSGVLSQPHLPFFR", "assay": "Inhibition of recombinant human N-terminal GST-tagged MKK7beta1 (2 to end residues) expressed in Escherichia coli at 2 uM using JNK1alpha1/SAPK1c as substrate relative to control"}, "[20]": {"molecular_target": "Mitogen-activated protein kinase 11 (Homo sapiens) (UniProt Q15759)", "assay": "Inhibition of recombinant human N-terminal GST-tagged full-length p38beta2 expressed in Escherichia coli at 2 uM using MBP as substrate relative to control"}, "[21]": {"molecular_target": "Serine/threonine-protein kinase PAK 2 (Homo sapiens) (UniProt Q13177)", "assay": "Inhibition of recombinant human N-terminal/C-terminal His6-tagged full-length PAK2 (3 to end residues) expressed in Escherichia coli at 2 uM using long S6 Kinase peptide as substrate relative to control"}, "[22]": {"molecular_target": "Protein kinase C beta type (Homo sapiens) (UniProt P05771)", "assay": "Inhibition of recombinant human N-terminal His6-tagged PKCbeta2 (2 to end residues) expressed in Sf21 insect cells at 2 uM using Histone H1 as substrate relative to control"}, "[23]": {"test_system": "RAF proto-oncogene serine/threonine-protein kinase (Homo sapiens), P04049 [Y340D,Y341D]", "assay": "Inhibition of recombinant human N-terminal GST-tagged c-RAF Y340D/Y341D mutant (306 to 648 residues) expressed in Sf9 insect cells at 2 uM using MEK1(K97R) as substrate relative to control"}, "[24]": {"molecular_target": "Rho-associated protein kinase 2 (Homo sapiens) (UniProt O75116)", "assay": "Inhibition of recombinant human N-terminal GST-tagged ROCK2 (5 to 554 residues) expressed in baculovirus infected Spodoptera frugiperda insect cells at 2 uM using KRRRLASLR as substrate relative to control"}, "[25]": {"molecular_target": "Proto-oncogene tyrosine-protein kinase ROS (Homo sapiens) (UniProt P08922)", "assay": "Inhibition of recombinant human N-terminal His6-tagged ROS (1883 to end residues) expressed in baculovirus infected Sf21 insect cells at 2 uM using KKKSPGEYVNIEFG as substrate relative to control"}, "[26]": {"molecular_target": "Ribosomal protein S6 kinase alpha-2 (Homo sapiens) (UniProt Q15349)", "assay": "Inhibition of recombinant human N-terminal full-length His6-tagged RSK3 ([…]) expressed in Sf21 insect cells at 2 uM using MAPKAP Kinase 2 as substrate relative to control"}, "[27]": {"molecular_target": "Serine/threonine-protein kinase Sgk1 (Homo sapiens) (UniProt O00141)", "assay": "Inhibition of SGK (unknown origin) at 2 uM relative to control"}, "[28]": {"molecular_target": "cGMP-inhibited 3',5'-cyclic phosphodiesterase 3A (Homo sapiens, UniProt Q14432)", "assay": "Inhibition of recombinant human N-terminal GST/His-tagged PDE3A (669 to 1141 residues) expressed in baculovirus infected Sf9 insect cells using iFL-cAMP as substrate preincubated for 15 mins followed by substrate addition and measured after 40 mins by fluorescence assay"}, "[29]": {"assay": "Unbound intrinsic clearance in human hepatocytes assessed per million cells", "format": "ADME, cell-based, Hepatocyte"}, "[30]": {"assay": "Unbound intrinsic clearance in mouse hepatocytes assessed per million cells", "format": "ADME, cell-based, Hepatocyte"}}, "data": [{"smiles": "C[C@@H](c1ccc2ncccc2c1)c1nnc2sc(-c3cnn(C)c3)nn12", "values": [{"measurement": "Ki", "setting": "[1]", "value": 20, "unit": "nM"}, {"measurement": "IC50", "setting": "[2]", "value": 20, "unit": "nM"}, {"measurement": "Ki", "setting": "[3]", "value": "> 4000", "unit": "nM"}, {"measurement": "Ki", "setting": "[4]", "value": "> 4000", "unit": "nM"}, {"measurement": "Ki", "setting": "[5]", "value": "> 4000", "unit": "nM"}, {"measurement": "Ki", "setting": "[6]", "value": "> 4000", "unit": "nM"}, {"measurement": "Ki", "setting": "[7]", "value": "> 4000", "unit": "nM"}, {"measurement": "Ki", "setting": "[8]", "value": "> 4000", "unit": "nM"}, {"measurement": "inhibition", "setting": "[9]", "value": "< 50", "unit": "%"}, {"measurement": "inhibition", "setting": "[10]", "value": "< 50", "unit": "%"}, {"measurement": "inhibition", "setting": "[11]", "value": "< 50", "unit": "%"}, {"measurement": "inhibition", "setting": "Homo sapiens", "value": "< 50", "unit": "%"}, {"measurement": "inhibition", "setting": "[12]", "value": "< 50", "unit": "%"}, {"measurement": "inhibition", "setting": "[13]", "value": "< 50", "unit": "%"}, {"measurement": "inhibition", "setting": "[14]", "value": "< 50", "unit": "%"}, {"measurement": "inhibition", "setting": "[15]", "value": "< 50", "unit": "%"}, {"measurement": "inhibition", "setting": "[16]", "value": "< 50", "unit": "%"}, {"measurement": "inhibition", "setting": "[17]", "value": "< 50", "unit": "%"}, {"measurement": "inhibition", "setting": "[18]", "value": "< 50", "unit": "%"}, {"measurement": "inhibition", "setting": "[19]", "value": "< 50", "unit": "%"}, {"measurement": "inhibition", "setting": "[20]", "value": "< 50", "unit": "%"}, {"measurement": "inhibition", "setting": "[21]", "value": "< 50", "unit": "%"}, {"measurement": "inhibition", "setting": "[22]", "value": "< 50", "unit": "%"}, {"measurement": "inhibition", "setting": "[23]", "value": "< 50", "unit": "%"}, {"measurement": "inhibition", "setting": "[24]", "value": "< 50", "unit": "%"}, {"measurement": "inhibition", "setting": "[25]", "value": "< 50", "unit": "%"}, {"measurement": "inhibition", "setting": "[26]", "value": "< 50", "unit": "%"}, {"measurement": "inhibition", "setting": "[27]", "value": "< 50", "unit": "%"}, {"measurement": "IC50", "setting": "[28]", "value": 500, "unit": "nM"}, {"measurement": "CL free", "setting": "[29]", "value": 5.1, "unit": "µL/min"}, {"measurement": "CL free", "setting": "[30]", "value": 7.2, "unit": "µL/min"}]}]}
